Test results taken from patent US20060084135A1, “Compositions for manipulating the lifespan and stress response of cells and organisms” (priority 2003, published 2006).
Values joined by “and” are separate entries in the source; they are usually repeats but may differ in a detail not shown here. Identical values can stand only once. Counter-ions that a name gives are not always drawn. Like-named read-outs stand apart in the source and are kept apart here.

Tests used:
C. elegans (strain N2) = experiment: C. elegans lifespan; type: in vivo; details: N2 worms, untreated = 100%
Procedure: Thus, the presence of resveratrol in the growth media of C. elegans extends their lifespan.
The effect of some of these compounds on lifespan was determined in yeast, C. elegans and D. melanogaster, as described above.

recombinant human SIRT1 = biological target: T1, recombinant human SIRT1 (Homo sapiens, UniProt Q96EB6); experiment: SIRT1 fluorescent deacetylation assay (p53-382 acetylated peptide substrate); type: biochemical; details: for SIRT1 stimulating activity (in words): polyphenol screen
T1 sequence (Q96EB6 1-747): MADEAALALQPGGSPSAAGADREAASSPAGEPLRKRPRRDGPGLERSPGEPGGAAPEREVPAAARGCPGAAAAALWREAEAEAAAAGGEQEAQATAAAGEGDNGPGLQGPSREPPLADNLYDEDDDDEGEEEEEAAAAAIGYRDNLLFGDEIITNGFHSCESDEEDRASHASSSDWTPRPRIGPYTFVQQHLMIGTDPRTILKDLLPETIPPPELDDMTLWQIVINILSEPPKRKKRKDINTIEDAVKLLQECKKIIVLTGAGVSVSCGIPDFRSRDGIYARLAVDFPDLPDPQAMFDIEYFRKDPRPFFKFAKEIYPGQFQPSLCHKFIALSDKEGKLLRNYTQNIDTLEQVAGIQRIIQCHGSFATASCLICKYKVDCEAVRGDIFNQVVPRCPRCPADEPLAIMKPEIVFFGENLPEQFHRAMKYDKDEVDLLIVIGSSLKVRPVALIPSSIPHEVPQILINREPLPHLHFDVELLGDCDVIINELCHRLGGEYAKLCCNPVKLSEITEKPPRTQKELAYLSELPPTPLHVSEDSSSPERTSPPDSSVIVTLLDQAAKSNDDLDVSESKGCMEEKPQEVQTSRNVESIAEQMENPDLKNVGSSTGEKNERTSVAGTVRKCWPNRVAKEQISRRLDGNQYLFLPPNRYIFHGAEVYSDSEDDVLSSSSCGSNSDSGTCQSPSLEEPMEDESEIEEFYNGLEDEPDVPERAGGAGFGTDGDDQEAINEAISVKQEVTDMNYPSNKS

S. cerevisiae = experiment: Yeast replicative lifespan; type: cell-based; details: 10 μM; for % change in yeast replicative lifespan relative to untreated organisms: 2% glucose YPD, untreated = 100%
Procedure: Average lifespan was determined for wild type untreated (□), quercetin (◯) and piceatannol (●).

[1] = Table 9, resveratrol analogs, 100 μM, 25 μM NAD+, 25 μM p53-382 acetylated peptide
[2] = Supplementary Table 2, flavones part I, 100 μM, 25 μM NAD+, 25 μM p53-382 acetylated peptide
[3] = Table 1, 100 μM compound, 25 μM NAD+, 25 μM p53-382 acetylated peptide
[4] = Supplementary Table 7, miscellaneous compounds, 100 μM, 25 μM NAD+, 25 μM p53-382 acetylated peptide
[5] = Supplementary Table 3, flavones part II, 100 μM, 25 μM NAD+, 25 μM p53-382 acetylated peptide
[6] = Supplementary Table 4, isoflavones, flavanones, anthocyanidins, 100 μM, 25 μM NAD+, 25 μM p53-382 acetylated peptide
[7] = Supplementary Table 1, stilbenes and chalcones, 100 μM, 25 μM NAD+, 25 μM p53-382 acetylated peptide
[8] = Table 13, resveratrol analogs, 100 μM, 25 μM NAD+, 25 μM p53-382 acetylated peptide
[9] = Table 12, resveratrol analogs, 100 μM, 25 μM NAD+, 25 μM p53-382 acetylated peptide
[10] = Table 10, resveratrol analogs, 100 μM, 25 μM NAD+, 25 μM p53-382 acetylated peptide

SMILES: COc1ccc(/C=C/c2cc(O)cc(O)c2)cc1 [BML-233, 3,5-Dihydroxy-4′-methoxy-trans-stilbene]
- % change in C. elegans lifespan relative to untreated organisms (C. elegans (strain N2); (10) printed in the cell): 70% (10)
- % change in C. elegans lifespan relative to untreated organisms (C. elegans (strain N2); (500) printed in the cell): 50% (500)
- Ratio to Control Rate Mean ± SE (recombinant human SIRT1): 5.48 ± 0.33

SMILES: Oc1cc(O)cc(/C=C/c2ccc(Cl)cc2)c1 [BML-217, 3,5-Dihydroxy-4′-chloro-trans-stilbene]
- Ratio to Control Rate Mean ± SE (recombinant human SIRT1; [1]): 10.6 ± 0.4
- % change in yeast replicative lifespan relative to untreated organisms (S. cerevisiae): 90%

SMILES: Oc1cc(O)cc(/C=C/c2ccccc2)c1 [Pinosylvin, 3,5-Dihydroxy-trans-stilbene]
- Ratio to Control Rate Mean ± SE (recombinant human SIRT1; [1]): 9.95 ± 0.45
- % change in yeast replicative lifespan relative to untreated organisms (S. cerevisiae): 114%

SMILES: O=c1c(O)c(-c2ccc(O)c(O)c2)oc2cc(O)ccc12 [Fisetin, 3,7,3′,4′-Tetrahydroxyflavone]
- Ratio to Control Rate Mean ± SE (recombinant human SIRT1; [2]): 6.58
- Ratio to Control Rate Mean ± SE (recombinant human SIRT1; [3]): 6.58 ± 0.69
- Effect on maximum lifespan (S. cerevisiae; wild type): significantly increased
- Increase of average lifespan (S. cerevisiae; wild type): 55%

SMILES: O=C(Nc1ccc(C(=O)Nc2ccc(C(=O)Nc3ccc(S(=O)(=O)O)c4cc(S(=O)(=O)O)cc(S(=O)(=O)O)c34)cc2)cc1)Nc1ccc(C(=O)Nc2ccc(C(=O)Nc3ccc(S(=O)(=O)O)c4cc(S(=O)(=O)O)cc(S(=O)(=O)O)c34)cc2)cc1 [NF279, reference compound]
- Ratio to Control Rate Mean ± SE (recombinant human SIRT1; [4]): 0.0035

SMILES: O=c1c(O)c(-c2ccc(O)cc2O)oc2cc(O)cc(O)c12 [Morin, 3,5,7,2′,4′-Pentahydroxyflavone]
- Ratio to Control Rate Mean ± SE (recombinant human SIRT1; [5]): 1.461 ± 0.071

SMILES: Oc1cc(O)c2cc(O)c(-c3ccc(O)c(O)c3)[o+]c2c1.[Cl-] [Cyanidin chloride, 3,5,7,3′,4′-Pentahydroxyflavylium chloride]
- Ratio to Control Rate Mean ± SE (recombinant human SIRT1; [6]): 0.451 ± 0.015

SMILES: Oc1cc(O)cc(/C=C/c2ccc(O)c(O)c2)c1 [Piceatannol, 3,5,3′,4′-Tetrahydroxy-trans-stilbene]
- Ratio to Control Rate Mean ± SE (recombinant human SIRT1; [7]): 7.90 ± 0.50
- Ratio to Control Rate Mean ± SE (recombinant human SIRT1; [3]): 7.90 ± 0.50
- Stimulation of SIRT1 activity (recombinant human SIRT1; initial library screen): eight-fold
- Effect on lifespan (S. cerevisiae; wild type): no significant effect

SMILES: O=c1c(O)c(-c2ccc(O)c(O)c2)oc2cc(O)cc(O)c12 [Quercetin, 3,5,7,3′,4′-Pentahydroxyflavone]
- Ratio to Control Rate Mean ± SE (recombinant human SIRT1; [2]): 4.59 ± 0.47
- Ratio to Control Rate Mean ± SE (recombinant human SIRT1; [3]): 4.59 ± 0.47
- Effect on lifespan (S. cerevisiae; wild type): no significant effect

SMILES: O=c1c(O)c(-c2cccc(O)c2O)oc2ccc(O)cc12 [3,6,2′,3′-Tetrahydroxyflavone]
- Ratio to Control Rate Mean ± SE (recombinant human SIRT1; [5]): 1.74 ± 0.27

SMILES: C(=C/c1ccccc1)/c1ccccc1 [cis-Stilbene]
- Ratio to Control Rate Mean ± SE (recombinant human SIRT1; [7]): 1.14 ± 0.29

SMILES: Cc1ccc(NC(=O)c2cccc(N(C)C)c2)cc1NC(=O)c1ccc(O)cc1 [ZM 336372, reference compound]
- Ratio to Control Rate Mean ± SE (recombinant human SIRT1; Supplementary Table 8, compound at 100 μM, 25 μM NAD+, 25 μM p53-382 acetylated peptide): 3.5 ± 1.1

SMILES: O=c1cc(-c2cc(O)c(O)c(O)c2)oc2cc(O)cc(O)c12 [5,7,3′4′,5′-Pentahydroxyflavone]
- Ratio to Control Rate Mean ± SE (recombinant human SIRT1; [2]): 6.05 ± 0.98

SMILES: O=c1cc(-c2ccccc2)oc2cc(O)cc(O)c12 [5,7-Dihydroxyflavone]
- Ratio to Control Rate Mean ± SE (recombinant human SIRT1; [5]): 1.51 ± 0.18

SMILES: Oc1ccc(CCc2cc(O)cc(O)c2)cc1 [Dihydroresveratrol, 1-(3,5-Dihydroxyphenyl)-2-(4-hydroxyphenyl) ethane]
- Ratio to Control Rate Mean ± SE (recombinant human SIRT1; [8]): 1.08 ± 0.14

SMILES: O=c1c(O)c(-c2ccc(O)cc2)oc2c(O)c(O)ccc12 [7,8,3,4′-Tetrahydroxyflavone]
- Ratio to Control Rate Mean ± SE (recombinant human SIRT1; [5]): 1.91

SMILES: NC(=O)c1cccnc1 [Nicotinamide, reference compound]
- SIRT1 Vmax decrease (recombinant human SIRT1; 50 μM nicotinamide, absence of resveratrol, NAD+ or p53-382 peptide varied): 30% and 36%
- Ratio to Control Rate Mean ± SE (recombinant human SIRT1; [4]): 0.428

SMILES: Oc1cc(O)cc(/C=C/C2CCCCC2)c1 [BML-224, (E)-1-(3,5-Dihydroxyphenyl)-2-(cyclohexyl) ethene]
- Ratio to Control Rate Mean ± SE (recombinant human SIRT1; [9]): 1.297 ± 0.042

SMILES: O=c1c(O)c(-c2ccc(O)c(O)c2)oc2ccc(O)cc12 [3,6,3′,4′-Tetrahydroxyflavone]
- Ratio to Control Rate Mean ± SE (recombinant human SIRT1; [2]): 5.45 ± 0.57

SMILES: O=c1c(O)c(-c2cc(O)c(O)c(O)c2)oc2cc(O)cc(O)c12 [Myricetin, 3,5,7,3′,4′,5′-Hexahydroxyflavone]
- Ratio to Control Rate Mean ± SE (recombinant human SIRT1; [5]): 0.898 ± 0.070

SMILES: O=c1cc(-c2ccccc2)oc2ccccc12 [Flavone]
- Ratio to Control Rate Mean ± SE (recombinant human SIRT1; [5]): 1.41 ± 0.23

SMILES: C[N+](C)(C)[C@@H](Cc1c[nH]c(=S)[nH]1)C(=O)[O-] [L-(+)-Ergothioneine, (S)-a-Carboxy-2,3-dihydro-N,N,N-trimethyl-2-thioxo-1H-imidazole-4-ethanaminium inner salt]
- Ratio to Control Rate Mean ± SE (recombinant human SIRT1; Supplementary Table 6, free radical protective compounds, 100 μM, 25 μM NAD+, 25 μM p53-382 acetylated peptide): 2.06 ± 0.48

SMILES: COCOc1cc(/C=C/c2ccc(SC)cc2)cc(OCOC)c1 [BML-226, 3,5-Dimethoxymethoxy-4′-thiomethyl-trans-stilbene]
- Ratio to Control Rate Mean ± SE (recombinant human SIRT1; [9]): 2.316 ± 0.087

SMILES: COc1ccc(/C=C/c2ccccc2)cc1 [4-Methoxy-trans-stilbene]
- Ratio to Control Rate Mean ± SE (recombinant human SIRT1; [8]): 0.840 ± 0.089

SMILES: O=C(Nc1cccc(C(=O)Nc2ccc(S(=O)(=O)O)c3cc(S(=O)(=O)O)cc(S(=O)(=O)O)c23)c1)Nc1cccc(C(=O)Nc2ccc(S(=O)(=O)O)c3cc(S(=O)(=O)O)cc(S(=O)(=O)O)c23)c1 [NF023, reference compound]
- Ratio to Control Rate Mean ± SE (recombinant human SIRT1; [4]): −0.0016

SMILES: COc1ccc(/C=C/c2cc(O)cc(O[C@@H]3O[C@H](CO)[C@@H](O)[C@H](O)[C@H]3O)c2)cc1 [Deoxyrhapontin, 3,5-Dihydroxy-4′-methoxystilbene 3-O-β-D-glucoside]
- Ratio to Control Rate Mean ± SE (recombinant human SIRT1; [7]): 1.94 ± 0.21

SMILES: O=C(/C=C/c1ccc(O)c(O)c1)c1c(O)cc(O)cc1O [3,4,2′,4′,6′-Pentahydroxychalcone]
- Ratio to Control Rate Mean ± SE (recombinant human SIRT1; [7]): 2.80 ± 0.32

SMILES: [N-]=[N+]=Nc1ccc(/C=C/c2cc(O)cc(O)c2)cc1 [BML-232, 3,5-Dihydroxy-4′-azido-trans-stilbene]
- Ratio to Control Rate Mean ± SE (recombinant human SIRT1; [10]): 7.24 ± 0.12
- SIRT1 stimulating activity (in words) (recombinant human SIRT1): very similar SIRT1 activating properties to resveratrol

SMILES: CCCCCCCCCCCCC/C=C/[C@@H](O)[C@@H](N)CO [Sphingosine]
- Ratio to Control Rate Mean ± SE (recombinant human SIRT1; Supplementary Table 8, compound concentration not given, 25 μM NAD+, 25 μM p53-382 acetylated peptide): 0.069 ± 0.028

SMILES: O=[N+]([O-])c1ccc(/C=C/c2cc(O)cc(O)c2)cc1 [BML-229, 3,5-Dihydroxy-4′-nitro-trans-stilbene]
- Ratio to Control Rate Mean ± SE (recombinant human SIRT1; [10]): 6.78 ± 0.22

SMILES: O=c1c(-c2ccc(O)cc2)coc2cc(O)ccc12 [Daidzein, 7,4′-Dihydroxyisoflavone]
- Ratio to Control Rate Mean ± SE (recombinant human SIRT1; [6]): 2.28 ± 0.74

SMILES: CSc1ccc(/C=C/c2cc(O)cc(O)c2)cc1 [BML-230, 3,5-Dihydroxy-4′-thiomethyl-trans-stilbene]
- Ratio to Control Rate Mean ± SE (recombinant human SIRT1; [10]): 6.84 ± 1.26

SMILES: O=c1ccc2cc(O)c(O)cc2o1 [Esculetin]
- Ratio to Control Rate Mean ± SE (recombinant human SIRT1; Supplementary Table 8, compound at 10 μM, 25 μM NAD+, 25 μM p53-382 acetylated peptide): 1.737 ± 0.082

SMILES: O=c1c(O)c(-c2ccc(O)cc2O)oc2ccc(O)cc12 [3,6,2′,4′-Tetrahydroxyflavone]
- Ratio to Control Rate Mean ± SE (recombinant human SIRT1; [2]): 2.10 ± 0.22

SMILES: O=c1c(-c2ccc(O)cc2)coc2cc(O)cc(O)c12 [5,7,4′-Trihydroxyisoflavone]
- Ratio to Control Rate Mean ± SE (recombinant human SIRT1; [6]): 1.109 ± 0.026
- SIRT1 stimulating activity (in words) (recombinant human SIRT1): absence of activity
